Experimental data from ChEMBL document CHEMBL5465560, “Selectivity Literature for EUbOPEN Chemogenomic Library” (2024).

Tests used:
[1] = molecular target: Myosin light chain kinase, smooth muscle (Homo sapiens, UniProt Q15746); assay: Selectivity interaction (KinomeScan (DiscoverX)) EUB0000666a MYLK; conditions: at 10 µM
[2] = molecular target: Serine/threonine-protein kinase N2 (Homo sapiens, UniProt Q16513); assay: Selectivity interaction (KinomeScan (DiscoverX)) EUB0000666a PKN2; conditions: at 10 µM
[3] = molecular target: 5-hydroxytryptamine receptor 2A (Homo sapiens, UniProt P28223); assay: Selectivity interaction (GPCR panel (PDSP screen)) EUB0001079a HTR2A; conditions: at 10 µM
[4] = molecular target: 5-hydroxytryptamine receptor 2B (Homo sapiens, UniProt P41595); assay: Selectivity interaction (Serotonin 5HT2B Calcium flux assay, agonist mode ) EUB0000877a HTR2B
[5] = molecular target: Casein kinase II subunit alpha' (Homo sapiens) (UniProt P19784); conditions: at 10 µM
[6] = molecular target: Serine/threonine-protein kinase Chk2 (Homo sapiens) (UniProt O96017); assay: Selectivity interaction (ActivX KiNativ screen (kinase selectivity in THP-1 cell lysates)) EUB0000639a CHEK2; format: subcellular; conditions: lysate, at 0.2 µM
[7] = molecular target: Glycogen synthase kinase-3 beta (Homo sapiens, UniProt P49841); assay: Selectivity interaction (KinomeScan (DiscoverX)) EUB0000595a GSK3B; conditions: at 10 µM
[8] = molecular target: T1, Aurora kinase C (Homo sapiens) (UniProt Q9UQB9); assay: Selectivity interaction (KinomeScan (DiscoverX)) EUB0000092b AURKC; conditions: at 10 µM
T1 sequence (whole entry): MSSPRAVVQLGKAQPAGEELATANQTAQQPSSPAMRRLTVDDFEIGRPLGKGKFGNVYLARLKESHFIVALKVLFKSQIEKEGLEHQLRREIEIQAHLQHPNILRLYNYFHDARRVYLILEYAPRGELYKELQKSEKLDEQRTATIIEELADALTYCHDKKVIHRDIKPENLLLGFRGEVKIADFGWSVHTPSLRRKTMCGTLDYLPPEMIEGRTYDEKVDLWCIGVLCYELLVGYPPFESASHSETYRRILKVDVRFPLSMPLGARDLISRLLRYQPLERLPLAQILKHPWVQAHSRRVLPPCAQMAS

[9] = molecular target: T2, Serine/threonine-protein kinase ULK3 (Homo sapiens) (UniProt Q6PHR2); assay: Selectivity interaction (KinomeScan (DiscoverX)) EUB0000092b ULK3; conditions: at 10 µM
T2 sequence (whole entry): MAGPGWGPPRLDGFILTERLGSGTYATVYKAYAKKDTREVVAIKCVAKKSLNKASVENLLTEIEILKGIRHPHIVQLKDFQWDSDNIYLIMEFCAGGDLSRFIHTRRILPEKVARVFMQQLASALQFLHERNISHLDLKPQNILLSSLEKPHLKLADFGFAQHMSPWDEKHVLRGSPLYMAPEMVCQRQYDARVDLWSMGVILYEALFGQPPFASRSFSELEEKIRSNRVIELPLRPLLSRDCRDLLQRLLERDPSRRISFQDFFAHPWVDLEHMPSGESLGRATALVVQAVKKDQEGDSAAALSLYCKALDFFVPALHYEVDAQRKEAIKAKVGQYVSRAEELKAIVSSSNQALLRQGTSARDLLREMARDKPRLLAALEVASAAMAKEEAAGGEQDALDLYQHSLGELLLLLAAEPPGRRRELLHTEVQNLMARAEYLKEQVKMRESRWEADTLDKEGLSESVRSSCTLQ

[10] = molecular target: T3, cAMP-dependent protein kinase catalytic subunit PRKX (Homo sapiens) (UniProt P51817); assay: Selectivity interaction (KinomeScan (DiscoverX)) EUB0000045b PRKX
T3 sequence (whole entry): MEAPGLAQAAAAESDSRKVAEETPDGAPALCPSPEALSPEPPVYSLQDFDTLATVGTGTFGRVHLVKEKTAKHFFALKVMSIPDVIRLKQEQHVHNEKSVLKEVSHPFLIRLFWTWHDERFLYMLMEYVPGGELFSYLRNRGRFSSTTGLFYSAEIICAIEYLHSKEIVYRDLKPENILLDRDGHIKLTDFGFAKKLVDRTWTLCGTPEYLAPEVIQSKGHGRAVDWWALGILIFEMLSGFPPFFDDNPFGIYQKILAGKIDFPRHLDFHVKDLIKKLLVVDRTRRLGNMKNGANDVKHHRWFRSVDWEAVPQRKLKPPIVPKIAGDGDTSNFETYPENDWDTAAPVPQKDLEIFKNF

[11] = molecular target: Leucine-rich repeat serine/threonine-protein kinase 2 (Homo sapiens, UniProt Q5S007); assay: (§1) Selectivity interaction (KinomeScan (DiscoverX)) EUB0000045b LRRK2
Leucine-rich repeat serine/threonine-protein kinase 2, sequence (Q5S007 whole entry): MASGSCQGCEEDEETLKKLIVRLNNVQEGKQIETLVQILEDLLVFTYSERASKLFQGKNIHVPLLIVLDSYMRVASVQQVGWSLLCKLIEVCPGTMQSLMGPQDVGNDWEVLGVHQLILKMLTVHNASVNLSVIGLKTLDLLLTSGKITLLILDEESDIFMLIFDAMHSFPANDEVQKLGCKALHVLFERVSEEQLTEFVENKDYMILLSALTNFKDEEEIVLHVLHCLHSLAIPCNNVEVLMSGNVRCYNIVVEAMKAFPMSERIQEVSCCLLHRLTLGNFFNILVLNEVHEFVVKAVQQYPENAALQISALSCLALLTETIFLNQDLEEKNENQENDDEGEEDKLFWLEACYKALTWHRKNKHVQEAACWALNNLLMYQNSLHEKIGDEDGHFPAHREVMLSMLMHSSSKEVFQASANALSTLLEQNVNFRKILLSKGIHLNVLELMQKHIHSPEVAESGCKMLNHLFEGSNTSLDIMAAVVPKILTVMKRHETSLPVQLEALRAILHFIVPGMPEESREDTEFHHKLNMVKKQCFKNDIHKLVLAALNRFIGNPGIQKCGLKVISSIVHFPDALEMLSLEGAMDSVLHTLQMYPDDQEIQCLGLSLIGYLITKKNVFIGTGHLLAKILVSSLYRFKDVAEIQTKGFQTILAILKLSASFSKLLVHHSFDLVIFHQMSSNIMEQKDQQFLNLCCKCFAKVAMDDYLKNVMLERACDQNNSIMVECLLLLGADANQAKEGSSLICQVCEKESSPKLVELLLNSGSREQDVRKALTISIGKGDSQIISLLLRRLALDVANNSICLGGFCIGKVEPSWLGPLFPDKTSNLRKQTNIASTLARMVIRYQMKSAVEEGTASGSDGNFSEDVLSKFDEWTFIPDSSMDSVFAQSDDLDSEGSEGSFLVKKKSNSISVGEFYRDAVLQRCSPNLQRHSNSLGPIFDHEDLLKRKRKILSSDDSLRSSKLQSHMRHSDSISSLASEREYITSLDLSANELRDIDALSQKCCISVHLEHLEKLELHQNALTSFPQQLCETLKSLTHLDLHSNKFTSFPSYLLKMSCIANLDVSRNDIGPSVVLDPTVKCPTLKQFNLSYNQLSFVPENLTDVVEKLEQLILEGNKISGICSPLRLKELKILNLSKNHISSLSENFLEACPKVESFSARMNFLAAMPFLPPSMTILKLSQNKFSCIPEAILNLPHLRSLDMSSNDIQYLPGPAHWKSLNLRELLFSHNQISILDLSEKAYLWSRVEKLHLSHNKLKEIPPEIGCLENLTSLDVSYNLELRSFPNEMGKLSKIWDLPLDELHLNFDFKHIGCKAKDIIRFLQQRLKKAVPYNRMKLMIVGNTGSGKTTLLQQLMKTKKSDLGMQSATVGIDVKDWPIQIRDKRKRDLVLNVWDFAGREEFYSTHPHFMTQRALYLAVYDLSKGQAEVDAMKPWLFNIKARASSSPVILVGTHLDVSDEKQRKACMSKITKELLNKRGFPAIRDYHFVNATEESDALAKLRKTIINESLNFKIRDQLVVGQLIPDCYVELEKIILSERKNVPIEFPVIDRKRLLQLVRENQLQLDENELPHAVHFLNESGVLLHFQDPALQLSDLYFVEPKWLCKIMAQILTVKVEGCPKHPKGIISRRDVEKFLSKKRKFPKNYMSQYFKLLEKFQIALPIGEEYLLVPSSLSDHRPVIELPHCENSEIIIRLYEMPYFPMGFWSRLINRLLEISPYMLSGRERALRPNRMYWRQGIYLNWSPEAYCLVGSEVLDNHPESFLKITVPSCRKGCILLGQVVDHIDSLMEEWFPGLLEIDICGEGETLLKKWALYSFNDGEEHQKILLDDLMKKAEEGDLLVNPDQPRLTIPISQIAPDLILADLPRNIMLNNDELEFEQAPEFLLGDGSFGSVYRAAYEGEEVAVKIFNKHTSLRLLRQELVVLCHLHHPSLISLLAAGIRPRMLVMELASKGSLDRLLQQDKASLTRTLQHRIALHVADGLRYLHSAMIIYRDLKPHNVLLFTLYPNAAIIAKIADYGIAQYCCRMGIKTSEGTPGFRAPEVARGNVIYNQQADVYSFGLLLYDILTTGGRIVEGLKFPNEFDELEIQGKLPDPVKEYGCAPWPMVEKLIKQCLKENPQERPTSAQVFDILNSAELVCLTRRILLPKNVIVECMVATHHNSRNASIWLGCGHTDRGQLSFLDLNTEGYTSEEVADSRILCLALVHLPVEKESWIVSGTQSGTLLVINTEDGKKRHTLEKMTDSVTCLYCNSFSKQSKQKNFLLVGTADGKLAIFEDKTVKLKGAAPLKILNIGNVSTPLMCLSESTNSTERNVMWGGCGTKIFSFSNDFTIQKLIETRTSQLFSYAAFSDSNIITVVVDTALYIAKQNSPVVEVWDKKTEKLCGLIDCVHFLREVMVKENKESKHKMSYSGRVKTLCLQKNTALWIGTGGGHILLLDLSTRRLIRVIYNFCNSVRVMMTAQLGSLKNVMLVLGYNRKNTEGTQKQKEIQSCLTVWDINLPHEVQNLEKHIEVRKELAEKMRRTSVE

[12] = system: Leucine-rich repeat serine/threonine-protein kinase 2 (Homo sapiens), Q5S007 [G2019S]; assay: as §1
Leucine-rich repeat serine/threonine-protein kinase 2 (Homo sapiens), Q5S007 [G2019S], sequence (Q5S007 whole entry G2019S): as the sequence (Q5S007 whole entry) above, with G2019S counted along it

[13] = molecular target: Tyrosine-protein kinase Lck (Homo sapiens, UniProt P06239); assay: Selectivity interaction (KinomeScan (DiscoverX)) EUB0000618a LCK; conditions: at 10 µM
[14] = molecular target: MAP kinase-interacting serine/threonine-protein kinase 2 (Homo sapiens, UniProt Q9HBH9)
[15] = molecular target: Casein kinase I isoform gamma-1 (Homo sapiens) (UniProt Q9HCP0); assay: Selectivity interaction (Upstate Kinase Profiler service (Millipore)) EUB0000056c CSNK1G1; conditions: at 1 µM
[16] = molecular target: T4, TGF-beta receptor type-1 (Homo sapiens) (UniProt P36897); assay: Selectivity interaction (KinomeScan (DiscoverX)) EUB0000607a TGFBR1; conditions: at 10 µM
T4 sequence (whole entry): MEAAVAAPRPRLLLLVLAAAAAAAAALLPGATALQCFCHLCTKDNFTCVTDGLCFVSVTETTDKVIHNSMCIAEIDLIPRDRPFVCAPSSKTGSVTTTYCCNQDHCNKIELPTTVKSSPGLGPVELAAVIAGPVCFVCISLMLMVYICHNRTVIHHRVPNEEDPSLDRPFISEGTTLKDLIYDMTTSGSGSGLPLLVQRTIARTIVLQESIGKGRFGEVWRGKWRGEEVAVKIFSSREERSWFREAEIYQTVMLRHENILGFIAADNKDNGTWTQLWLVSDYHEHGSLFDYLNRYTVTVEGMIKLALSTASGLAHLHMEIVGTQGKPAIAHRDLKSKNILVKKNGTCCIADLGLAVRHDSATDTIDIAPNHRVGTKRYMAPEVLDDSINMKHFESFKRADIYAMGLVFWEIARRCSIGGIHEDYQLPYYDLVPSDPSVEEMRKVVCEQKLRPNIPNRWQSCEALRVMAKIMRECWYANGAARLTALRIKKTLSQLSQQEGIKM

[17] = molecular target: N-lysine methyltransferase SMYD2 (Homo sapiens) (UniProt Q9NRG4); assay: Selectivity interaction (Methyltransferase screen (radiometric assays, panel of 8 PRMTs, 21 protein lysine methyltransferases, 3 DNA methyltransferases, and one RNA methyltransferase)) EUB0000272b SMYD2
N-lysine methyltransferase SMYD2 (Homo sapiens), sequence (Q9NRG4 whole entry): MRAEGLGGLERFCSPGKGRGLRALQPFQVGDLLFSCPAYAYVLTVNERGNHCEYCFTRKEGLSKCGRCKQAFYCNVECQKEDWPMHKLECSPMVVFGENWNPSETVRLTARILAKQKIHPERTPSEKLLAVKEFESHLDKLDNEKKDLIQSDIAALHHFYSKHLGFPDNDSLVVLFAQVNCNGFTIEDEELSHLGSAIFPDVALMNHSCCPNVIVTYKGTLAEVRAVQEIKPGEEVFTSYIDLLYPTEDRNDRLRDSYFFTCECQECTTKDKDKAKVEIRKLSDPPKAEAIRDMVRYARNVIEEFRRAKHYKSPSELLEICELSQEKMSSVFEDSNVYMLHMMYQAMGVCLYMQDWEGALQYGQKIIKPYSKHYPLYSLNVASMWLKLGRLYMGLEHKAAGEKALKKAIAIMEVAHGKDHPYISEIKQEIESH

[18] = molecular target: Misshapen-like kinase 1 (Homo sapiens, UniProt Q8N4C8); assay: Selectivity interaction (Kinase panel (Z-LYTE Assay)) EUB0001632a MINK1; conditions: at 10 µM

Myosin light chain kinase, smooth muscle, sequence (Q15746 whole entry): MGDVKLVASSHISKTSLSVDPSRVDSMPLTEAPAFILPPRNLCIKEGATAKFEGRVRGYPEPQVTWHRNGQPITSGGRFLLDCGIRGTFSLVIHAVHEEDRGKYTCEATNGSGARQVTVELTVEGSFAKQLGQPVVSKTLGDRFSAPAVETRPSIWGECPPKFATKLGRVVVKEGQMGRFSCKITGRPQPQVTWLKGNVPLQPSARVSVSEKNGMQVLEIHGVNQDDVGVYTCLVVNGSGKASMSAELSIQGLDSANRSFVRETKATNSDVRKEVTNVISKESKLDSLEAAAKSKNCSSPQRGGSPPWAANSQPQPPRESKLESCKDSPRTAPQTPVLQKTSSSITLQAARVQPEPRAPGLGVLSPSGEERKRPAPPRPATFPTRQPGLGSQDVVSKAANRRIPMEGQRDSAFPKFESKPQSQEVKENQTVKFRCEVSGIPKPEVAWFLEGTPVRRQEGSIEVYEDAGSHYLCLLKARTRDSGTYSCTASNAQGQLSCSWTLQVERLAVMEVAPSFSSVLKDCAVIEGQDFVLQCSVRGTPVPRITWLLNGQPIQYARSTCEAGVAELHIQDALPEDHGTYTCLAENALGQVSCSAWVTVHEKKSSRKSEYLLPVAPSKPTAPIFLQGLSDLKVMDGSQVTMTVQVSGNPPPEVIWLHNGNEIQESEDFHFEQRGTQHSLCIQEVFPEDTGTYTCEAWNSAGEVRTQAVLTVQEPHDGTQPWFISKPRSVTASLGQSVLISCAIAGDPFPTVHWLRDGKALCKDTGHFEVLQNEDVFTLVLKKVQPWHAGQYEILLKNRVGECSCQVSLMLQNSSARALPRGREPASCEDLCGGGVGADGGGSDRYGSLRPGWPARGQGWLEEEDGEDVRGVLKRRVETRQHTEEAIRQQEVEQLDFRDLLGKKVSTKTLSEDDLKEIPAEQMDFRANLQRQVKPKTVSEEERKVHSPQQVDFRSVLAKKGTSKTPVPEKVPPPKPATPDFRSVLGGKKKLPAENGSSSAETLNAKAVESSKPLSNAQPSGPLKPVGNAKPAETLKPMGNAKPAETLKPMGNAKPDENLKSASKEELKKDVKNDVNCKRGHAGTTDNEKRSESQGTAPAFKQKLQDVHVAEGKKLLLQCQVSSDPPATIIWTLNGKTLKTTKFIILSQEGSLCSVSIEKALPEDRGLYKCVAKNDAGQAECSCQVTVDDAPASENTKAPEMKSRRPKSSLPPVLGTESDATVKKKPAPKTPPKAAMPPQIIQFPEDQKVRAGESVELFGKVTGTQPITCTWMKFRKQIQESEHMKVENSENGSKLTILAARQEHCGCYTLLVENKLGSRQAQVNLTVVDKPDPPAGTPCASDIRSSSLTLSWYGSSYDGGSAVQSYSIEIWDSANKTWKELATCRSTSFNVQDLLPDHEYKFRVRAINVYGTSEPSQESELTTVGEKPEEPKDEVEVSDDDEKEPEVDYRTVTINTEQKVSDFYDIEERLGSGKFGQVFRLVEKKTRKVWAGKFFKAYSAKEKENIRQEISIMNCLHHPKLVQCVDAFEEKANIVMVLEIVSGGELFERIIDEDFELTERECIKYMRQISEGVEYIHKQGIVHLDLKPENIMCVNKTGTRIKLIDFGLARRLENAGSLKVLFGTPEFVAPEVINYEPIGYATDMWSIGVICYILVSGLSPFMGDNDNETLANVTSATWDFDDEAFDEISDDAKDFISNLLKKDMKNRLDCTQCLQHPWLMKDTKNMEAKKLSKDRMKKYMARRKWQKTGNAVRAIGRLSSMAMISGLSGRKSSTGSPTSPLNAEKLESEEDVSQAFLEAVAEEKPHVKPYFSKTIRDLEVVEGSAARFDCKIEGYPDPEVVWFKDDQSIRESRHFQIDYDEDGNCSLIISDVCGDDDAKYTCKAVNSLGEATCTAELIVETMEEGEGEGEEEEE

O=C(NOC[C@H](O)CO)c1ccc(F)c(F)c1Nc1ccc(I)cc1F
% of control [1]: 96% | % of control [2]: 100%

Nc1cnc(N2CCc3cc(S(=O)(=O)Nc4c(F)cc(Cl)cc4F)cc(N4CCCC4=O)c32)nc1 [TP-020n]
% of inhibition [3]: -2.82%

CCC(=O)N1CC[C@H](Nc2ncnc3c2CN(c2cnc(OC)c(C(F)(F)F)c2)CC3)C1 [LENIOLISIB]
IC50 [4]: > 30 µM

CCN(CC)CCCCNc1ncc2cc(-c3cc(OC)cc(OC)c3)c(NC(=O)NC(C)(C)C)nc2n1
% of control [5]: 100%

CC[C@@H]1[C@H](F)C(=O)N[C@@H]1COc1nccc2cc(C(N)=O)c(OC)cc12 [ZIMLOVISERTIB]
% of inhibition [6]: -0.3%

COCC(=O)NC/C=C/c1ccc2ncnc(Nc3ccc(Oc4ccc(C)nc4)c(C)c3)c2c1 [CP-724714]
% of control [7]: 68%

CCC(=O)N1CCN(c2ccc(-n3c(=O)ccc4cnc5ccc(-c6cnc7ccccc7c6)cc5c43)cc2C(F)(F)F)CC1
% of control [8]: 91% | % of control [9]: 100%

C=CC(=O)Nc1cc(-n2c(=O)ccc3cnc4ccc(-c5ccc(NS(C)(=O)=O)cc5)cc4c32)ccc1C
% of control ([10]; at 1 µM): 77% | % of control ([10]; at 10 µM): 74% | % of control ([11]; at 1 µM): 100% | % of control ([11]; at 10 µM): 100% | % of control ([12]; at 1 µM): 100% | % of control ([12]; at 10 µM): 62%

O[C@H]1CC[C@H](Nc2ncc3nc(Nc4c(F)cc(F)cc4F)n([C@H]4CCOC4)c3n2)CC1
% of control [13]: 57%

CCc1cccc(CC)c1NC(=O)c1nn(C)c2c1CCc1cnc(Nc3ccc(C(=O)NC4CCN(C)CC4)cc3OC(F)(F)F)nc1-2
IC50 [14]: > 10 µM

Cc1ccc(-c2ccc3c(ccc4sc5c(c43)NC[C@@H](C)NC5=O)n2)cn1
% of inhibition [15]: 23%

CNC(=O)Nc1ccc(-c2nc(N3CC4CCC(C3)O4)c3cnn(C4CCC5(CC4)OCCO5)c3n2)cc1
% of control [16]: 100%

Cc1cc(C)cc([C@H]2c3cc(C)ccc3NC(=O)CN2C(=O)c2ccc(Br)s2)c1
% of activity ([17]; at 1 µM): 94.3% | % of activity ([17]; at 10 µM): 94.3%

Cn1cc(-n2cnc3c(NCc4nc5cc(Cl)c(Cl)cc5[nH]4)nc(N4CCOCC4)nc32)cn1
% of control [18]: -3.28%
